Earlier results on one compound are cited in US20080107726A1, “COMPOSITIONS COMPRISING BETA-ADRENERGIC RECEPTOR ANTAGONISTS AND DIURETICS” (priority 2006, published 2008).

Structures are written as SMILES. Counter-ions that a name gives are not always drawn. Like-named read-outs stand apart in the source and are kept apart here.

Regarding `COCCc1ccc(OCC(O)CNC(C)C)cc1` (racemic) [Metoprolol succinate, (±)-1-(isopropylamino)-3-[p-(2-methoxyethyl)phenoxy]-2-propanol succinate (2:1) (salt)], the Solubility result runs as follows: (in dichloromethane and 2-propanol) “slightly soluble”; (in ethanol) “sparingly soluble”; (in ethyl acetate, acetone, diethylether and heptane) “practically insoluble”; (in methanol) “soluble”; (in water) “freely soluble”.
